Measured values published in PMC9879200, “Dual-target ligand discovery for Alzheimer’s disease: triphenylphosphoranylidene derivatives as inhibitors of acetylcholinesterase and β-amyloid aggregation” (Journal of Enzyme Inhibition and Medicinal Chemistry, 2023).
“Also recorded” adds a separate entry of the source. Where two headings read alike, the source gives them in different places.

Columns and labels:
[1] = tested on: scopolamine-induced memory impairment in mice; assay: Y-maze test, scopolamine-induced amnesia model; format: in vivo
Method: In order to test potential anticholinergic medication candidates, the in vivo scopolamine model was employed to cause memory impairment in mice. Scopolamine can inhibit the cholinergic system by antagonising the muscarinic receptor[47].
Animal working memory is assessed using the hippocampal-dependent Y-maze test. Working memory is measured using the spontaneous alternation score[48].
In the current investigation, adult Swiss Albino mice (8–10 weeks old, weighing 25–30 g) from the National Research Centre were employed. For 1 week, animals were acclimated in a room with constant illumination, humidity, and temperature (22 °C ± 1 °C, 60%, and 12 h of light/dark cycle). Throughout the experiment, unlimited amounts of food and water were given. Mice were kept in open, opaque propylene cages with good ventilation and wide access to a variety of forages.
(§4) Healthy mice were randomised into four groups of six mice each after a 1-week adaption period, at random, as follows: Group 1 is the control group, which received saline solution with 10% Tween 80. […] Following the injection of scopolamine, the behavioural study will be examined 30 min later.
In the Y-maze, a test of working memory, the animals’ capacity for spontaneous alternation was evaluated[49]. Three equally spaced horizontal arms measuring 120°, 45 cm long, and 16 cm high make up the Y-maze. Each mouse was put into one of the three arms of the maze and given free rein to wander from arm to arm. Both the number and order of arm inputs were recorded. The spontaneous alternation is derived from the following equation as a measure of memory performance: (Alternations/Total Arm Entries) − 2 × 100 = percent alternation. The student’s t-test was used to assess the data.

[2] = tested on: scopolamine-induced cognitive impairment; assay: Step-down passive avoidance test, scopolamine-induced amnesia model; format: in vivo; conditions: mice; for transfer latency time (TLT), passive avoidance test: 1 mg/kg orally 30 min before scopolamine 3 mg/kg intraperitoneal
Method: In order to test potential anticholinergic medication candidates, the in vivo scopolamine model was employed to cause memory impairment in mice.
For 1 week, animals were acclimated in a room with constant illumination, humidity, and temperature (22 °C ± 1 °C, 60%, and 12 h of light/dark cycle). Throughout the experiment, unlimited amounts of food and water were given. Mice were kept in open, opaque propylene cages with good ventilation and wide access to a variety of forages.
as §4
The passive avoidance test was conducted in a device that had two independent compartments split by a sliding door. There was a connection between the illuminated chamber and a dark compartment with an electrifiable grid floor, which was free of electric impulses. Each mouse was initially placed in the lit chamber so that it could become accustomed to it. The sliding door is then opened, allowing access to the enclosed, gloomy space. The door was shut once the animal had entered the chamber entirely, and it was then shocked with an electric shock lasting two seconds (24 V, 0.5 mA). The latency time to enter the dark container was measured to gauge working memory (Training trial). Twenty-four hours after the training trial, a test trial was carried out without application of the electric foot shock[50].

AChE [3] = target: T1, AChE (Homo sapiens, UniProt P22303); assay: In vitro AChE inhibition assay (improved Ellman spectrophotometric method); format: biochemical
T1 construct: purchased Bioassays System (BioAssay Systems) IACE-100
T1 sequence (P22303 32-614): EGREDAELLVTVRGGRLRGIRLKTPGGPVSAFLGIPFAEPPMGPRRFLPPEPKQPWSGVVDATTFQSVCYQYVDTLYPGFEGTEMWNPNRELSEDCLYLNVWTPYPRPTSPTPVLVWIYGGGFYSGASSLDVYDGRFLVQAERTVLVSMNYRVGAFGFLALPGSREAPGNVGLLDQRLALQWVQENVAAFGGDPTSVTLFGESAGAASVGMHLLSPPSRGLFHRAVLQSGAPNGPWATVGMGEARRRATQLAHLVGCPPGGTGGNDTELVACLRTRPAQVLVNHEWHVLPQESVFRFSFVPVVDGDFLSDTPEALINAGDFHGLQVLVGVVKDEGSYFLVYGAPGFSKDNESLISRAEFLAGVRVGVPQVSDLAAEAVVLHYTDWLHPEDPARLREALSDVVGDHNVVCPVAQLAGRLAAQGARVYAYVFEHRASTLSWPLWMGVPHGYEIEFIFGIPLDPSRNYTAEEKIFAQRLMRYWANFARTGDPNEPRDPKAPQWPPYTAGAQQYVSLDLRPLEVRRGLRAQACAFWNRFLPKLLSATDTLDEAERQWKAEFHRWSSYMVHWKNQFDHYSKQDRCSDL
Text: (§1) For AChE and BuChE inhibition experiments, Ellman et al. method’s was applied with a few minor adjustments. According to the manufacturer’s recommendations, the QuantiChromTM AChE Inhibitor Screening Kit (IACE-100), Bioassays System, and the Cholinesterase (ChE) Activity Assay Kit, LifeSpan BioSciences, Inc., USA, were used to measure the inhibition of AChE and BuChE, respectively. […] The relationship between product colour and enzyme activity after inhibition is established. Substrates included butyrylthiocholine iodide and acetylthiocholine iodide.

BuChE enzyme = target: T2, BuChE enzyme (Homo sapiens, UniProt P06276); assay: In vitro BuChE inhibition assay (modified Ellman spectrophotometric method); format: biochemical
T2 construct: purchased LifeSpan BioSciences, Inc., USA
T2 sequence (P06276 29-602): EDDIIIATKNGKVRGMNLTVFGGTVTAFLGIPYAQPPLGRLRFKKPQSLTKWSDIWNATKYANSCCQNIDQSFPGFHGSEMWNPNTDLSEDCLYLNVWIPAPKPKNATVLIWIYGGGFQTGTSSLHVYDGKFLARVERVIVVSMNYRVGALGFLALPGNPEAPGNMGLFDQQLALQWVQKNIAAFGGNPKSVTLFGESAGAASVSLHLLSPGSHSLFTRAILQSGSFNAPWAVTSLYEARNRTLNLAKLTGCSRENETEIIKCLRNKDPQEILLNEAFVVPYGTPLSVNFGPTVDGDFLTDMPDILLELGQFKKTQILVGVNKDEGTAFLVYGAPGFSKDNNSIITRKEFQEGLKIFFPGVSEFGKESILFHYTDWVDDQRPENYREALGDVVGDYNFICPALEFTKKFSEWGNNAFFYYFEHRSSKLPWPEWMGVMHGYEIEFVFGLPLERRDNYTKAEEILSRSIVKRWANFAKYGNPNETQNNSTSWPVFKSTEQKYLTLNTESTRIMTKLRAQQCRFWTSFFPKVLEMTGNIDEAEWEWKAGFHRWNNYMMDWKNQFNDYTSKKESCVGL
Method: This was carried out by using the modified Ellman spectrophotometric method.
as §1

MMP-2 = target: T3, MMP-2 (Homo sapiens, UniProt P08253); assay: MMP-2 inhibitor screening assay (fluorometric, FRET peptide); format: biochemical
T3 construct: purchased Abcam ab139447
T3 sequence (P08253 110-660): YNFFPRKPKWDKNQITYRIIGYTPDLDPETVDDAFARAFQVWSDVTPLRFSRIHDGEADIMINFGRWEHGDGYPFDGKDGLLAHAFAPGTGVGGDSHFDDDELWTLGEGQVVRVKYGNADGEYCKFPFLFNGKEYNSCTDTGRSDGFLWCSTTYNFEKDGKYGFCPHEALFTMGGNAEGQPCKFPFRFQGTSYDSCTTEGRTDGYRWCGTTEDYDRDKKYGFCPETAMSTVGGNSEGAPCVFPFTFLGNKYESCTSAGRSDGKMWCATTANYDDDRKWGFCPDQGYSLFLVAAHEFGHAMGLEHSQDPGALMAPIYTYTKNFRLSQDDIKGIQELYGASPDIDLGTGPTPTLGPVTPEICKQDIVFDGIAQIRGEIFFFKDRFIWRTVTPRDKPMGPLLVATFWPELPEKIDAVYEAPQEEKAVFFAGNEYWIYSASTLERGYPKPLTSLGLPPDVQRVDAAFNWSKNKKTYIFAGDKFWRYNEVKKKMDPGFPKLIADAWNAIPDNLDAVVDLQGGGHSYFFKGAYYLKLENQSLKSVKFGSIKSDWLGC
Text: Matrix Metalloproteinase-2 (MMP-2) is known for its impact on neurological disorders as AD[44–46].
This assay kit uses a fluorescence resonance energy transfer (FRET) peptide as a generic MMP activity indicator. In the intact FRET peptide, the fluorescence of one part is quenched by another. After cleavage into two separate fragments by MMPs, the fluorescence is recovered.

Aβ1–42 = target: T4, Aβ1–42 (Homo sapiens, UniProt P05067); assay: Self-induced Aβ1–42 aggregation inhibition assay (Thioflavin T, fluorometric); format: biochemical; conditions: Thioflavin T fluorescence; read-out: Self-induced Aβ1–42 aggregation IC50 (nM) ± SD
T4 construct: the beta amyloid 1–42 (Aβ42) Ligand Screening Assay Kit (Fluorometric) (K570-100); purchased BioVision K570-100
T4 sequence (P05067 672-713 limits assumed): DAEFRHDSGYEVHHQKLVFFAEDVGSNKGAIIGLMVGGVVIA

AChE [4] = target: T1, AChE; assay: Kinetic study of AChE inhibition (Lineweaver-Burk and Dixon plots); format: biochemical
Text: Figure 5.
as §1

[5] = SH-SY5Y neuroblastoma cell toxicity (MTT assay); conditions: human, SH-SY5Y neuroblastoma cells
Method: (§2) The cell viability was determined through using MTT assay.
(§3) The American Type Culture Collection provided the cells (Rockville, MD). […] The chemical was applied to the cells at various doses ([…]) for 48 h. The MTT colorimetric assay’s described methodology was then used[57].

[6] = tested on: AChE (IC50 in the denominator); assay: SH-SY5Y neuroblastoma cell toxicity (MTT assay); conditions: human, SH-SY5Y neuroblastoma cells
Method: as §2, §3

[7] = read-out: AChE IC50 (nM) ± SD, average of triplicate determination, Ellman method, pH 7.5

CN1[C@@H]2C[C@@H](OC(=O)[C@H](CO)c3ccccc3)C[C@H]1[C@@H]1O[C@@H]12 [Scopolamine]
Y-maze test, percent alternations, scopolamine model group ([1]; mice, scopolamine 3 mg/kg intraperitoneal alone, control group 82.1): 51.2% | transfer latency time (TLT), passive avoidance test, scopolamine-treated group ([2]; scopolamine 3 mg/kg intraperitoneal alone): 27.2 s

C[Si]1(Cl)C=CC(=O)C1=P(c1ccccc1)(c1ccccc1)c1ccccc1 (stereo not shown) [5b, 1-Chloro-1-methyl-2-(triphenylphosphoranylidene)-1H-silol-3(2H)-one]
IC50 (AChE [3]): 345 nM

CCc1c(CC)/c(=N/c2ccccc2)c1=P(c1ccccc1)(c1ccccc1)c1ccccc1 [C00006]
IC50 (AChE [3]): 507 ± 22.1 nM

c1ccc(N=c2c(-c3ccccc3)c(-c3ccccc3)c2=P(c2ccccc2)(c2ccccc2)c2ccccc2)cc1 [11a, N-(2,3-diphenyl-4-(triphenylphosphoranylidene)cyclobut-2-en-1-ylidene)aniline]
IC50 (AChE [3]): 185 nM

COc1cc2c(cc1OC)C(=O)C(CC1CCN(Cc3ccccc3)CC1)C2 (stereo not shown) [Donepezil]
Y-maze test, percent alternations ([1]; 1 mg/kg): 80.7% | transfer latency time (TLT), passive avoidance test [2]: 44.0 s

C[Si](C)(C)c1c([Si](C)(C)C)c(=P(c2ccccc2)(c2ccccc2)c2ccccc2)c1=O [C00010]
IC50 (AChE [3]; [7]): 113 ± 4.82 nM

C[Si]1(Cl)C=C/C(=N\c2ccccc2)C1=P(c1ccccc1)(c1ccccc1)c1ccccc1 (stereo not shown) [C00001]
IC50 (AChE [3]): 206 ± 7.33 nM

C=CC(C(C)=O)=P(c1ccccc1)(c1ccccc1)c1ccccc1 [8c, 3-(Triphenylphosphoranylidene)pent-4-en-2-one]
IC50 (AChE [3]): 97 nM | IC50 (BuChE enzyme): 84.8 ± 2.91 nM | Selectivity index (BuChE enzyme; Selectivity index = (BuChE IC50)/(AChE IC50)): 0.87 | IC50 (MMP-2): 724 ± 16.5 nM | IC50 (Aβ1–42): 302 ± 11.4 nM | type of AChE inhibition (AChE [4]; Lineweaver-Burk plot, Vmax and Km patterns): uncompetitively; also recorded: uncompetitive | Ki (AChE [4]; estimate from Dixon plot, read-out: inhibitory constant, Ki): 15.7 nM | CC50 at 48 h [5]: 7.31 ± 0.26 µM | selectivity ratio at 48 h [6]: 75.3 | Y-maze test, percent alternations ([1]; mice, 1 mg/kg orally 30 min before scopolamine 3 mg/kg intraperitoneal): 83.9% | transfer latency time (TLT), passive avoidance test [2]: 45.2 s

C[Si]1(Cl)C=CC(=Nc2ccccc2)C1=P(c1ccccc1)(c1ccccc1)c1ccccc1 (stereo not shown) [5a, N-(1-chloro-1-methyl-2-(triphenylphosphoranylidene)-1H-silol-3(2H)-ylidene)aniline]
IC50 (AChE [3]): 206 nM

CCc1c(CC)c(=P(c2ccccc2)(c2ccccc2)c2ccccc2)c1=O [13b, 2,3-Diethyl-4-(triphenylphosphoranylidene)cyclobut-2-enone]
IC50 (AChE [3]): 249 nM

CCc1c(CC)c(=P(c2ccccc2)(c2ccccc2)c2ccccc2)c1=O [C00008]
IC50 (AChE [3]; [7]): 249 ± 10.4 nM

O=c1c(-c2ccccc2)c(-c2ccccc2)c1=P(c1ccccc1)(c1ccccc1)c1ccccc1 [11b, 2,3-Diphenyl-4-(triphenylphosphoranylidene)cyclobut-2-enone]
IC50 (AChE [3]): 508 nM

C=CC(C(=O)c1ccccc1)=P(c1ccccc1)(c1ccccc1)c1ccccc1 [8d, 1-Phenyl-2-(triphenylphosphoranylidene)but-3-en-1-one]
IC50 (AChE [3]): 426 nM

c1ccc(/N=c2/c(-c3ccccc3)c(-c3ccccc3)c2=P(c2ccccc2)(c2ccccc2)c2ccccc2)cc1 [C00002]
IC50 (AChE [3]): 185 ± 9.22 nM

C=CC(C(=O)OC)=P(c1ccccc1)(c1ccccc1)c1ccccc1 [8b, Methyl 2-(triphenylphosphoranylidene)but-3-enoate]
IC50 (AChE [3]): 158 nM

C[Si](C)(C)c1c([Si](C)(C)C)c(=P(c2ccccc2)(c2ccccc2)c2ccccc2)c1=O [compound 15, 2,3-Bis(trimethylsilyl)-4-(triphenylphosphoranylidene)cyclobut-2-enone]
IC50 (AChE [3]): 113 nM
